Read-outs that look alike come from different tables or passages of the source.
Key:
[1] = target: T1, human recombinant aldose reductase (HRAR) (Homo sapiens, UniProt P15121); test: HRAR inhibitory activity; type: biochemical
T1 construct: purchased Wako Chemicals (Osaka, Japan)
Text: (§1) Protein tyrosine phosphatase 1B (PTP1B) was purchased from ENZO (Farmingdale, NY, USA). Human recombinant AR (0.4 units) was purchased from Wako Chemicals (Osaka, Japan). Citric acid trisodium salt dehydrate, citric acid monohydrate, sodium carbonate anhydrous, sodium chloride, sodium phosphate dibasic anhydrous, and sodium phosphate monobasic dehydrate were purchased from SAMCHUN (Seoul, Korea). Peroxynitrite (ONOO^−), 3-[(3-cholamidopropyl)dimethylammonio]-1-propanesulfonate (CHAPS), and sodium azide were purchased from Bio-Rad Laboratories Calbiochem (San Diego, CA, USA), GENERAY BIOTECH (Shanghai, China), and JUNSEI (Chuoku, Tokyo, Japan), respectively.
The inhibitory activity of HRAR was examined according to previous literature with modifications. First, 150 µL of 100 mM sodium phosphate buffer (pH 6.2), 20 µL of 0.3 mM NADPH as the co-enzyme, 5 µL of the test samples (50, 10, and 2 mg/mL or 100% DMSO), and 20 µL of 10 mM DL-glyceraldehyde as the substrate were added to each of the 96 wells (final volume 200 µL). […] The inhibitory activity of AGEs formation was examined according to the modified method. Aminoguanidine hydrochloride was used as a positive control for the AGEs formation inhibition assay.

α-glucosidase [2] = test: α-Glucosidase inhibitory activity; type: biochemical, Saccharomyces cerevisiae; conditions: isolated compounds; mean ± SD, triplicate
Text: as §1
(§2) The enzyme inhibition study was executed spectrophotometrically following the previous literature.

α-glucosidase [3] = test: α-Glucosidase enzyme kinetics (Lineweaver–Burk and Dixon plots); type: biochemical, Saccharomyces cerevisiae; conditions: substrate pNPG; for Ki: Dixon plots, read-out: α-Glucosidase Inhibition Constant (Ki); for α-Glucosidase Inhibition Mode: Lineweaver–Burk plots
Experimental: (§3) The two kinetic methods, Lineweaver–Burk plots and Dixon plots, were used to determine the inhibition mechanism. The α-glucosidase inhibition type was measured at various concentrations of substrate (pNPG, 0.625, 1.25, and 2.5 mM) and several concentrations of test compounds (0.8, 0.4, and 0.16 μM for compound 4; 2, 0.8, and 0.16 μM for 6; 3.17, 1.59, and 0.63 μM for 7; 1.54, 1.04, and 0.62 μM for 8) using Lineweaver–Burk double reciprocal plots. The PTP1B enzyme inhibition type was also measured at various concentrations of substrate (pNPP, 0.5, 1.0, 2.0, and 4.0 mM) and several concentrations of test compounds (4.0, 2.0, and 0.8 μM for compound 4; 2.0, 0.8, and 0.16 μM for 6; 15.87, 7.93, 3.17, and 0.63 μM for 7; 6.17, 3.08, 1.54 and 0.78 μM for 8) using Lineweaver–Burk double reciprocal plots. Dixon plots were used to determine the inhibition constant (Ki) of each compound by testing the effects of substrate and compounds against the α-glucosidase and PTP1B under the same conditions as described above.
(§4) Enzyme kinetic analysis was performed with different concentrations of substrate (pNPG and pNPP) and various concentrations of compounds to determine the type of inhibition on the compounds. Lineweaver–Burk and Dixon plots were used to determine the type of inhibition in enzyme kinetics. Each line of inhibitors intersected at the xy-side, indicating mixed-type inhibitors. On the other hand, the lines penetrated the same point on the x-intercept, representing non-competitive inhibitors in Lineweaver–Burk plots, and the Dixon plot was also used to calculate the Ki value for the enzyme inhibitor complex with the value shown on the x-axis indicating the -Ki value.

PTP1B [4] = target: T2, PTP1B (Homo sapiens, UniProt P18031); test: PTP1B inhibitory activity; type: biochemical
T2 construct: purchased ENZO (Farmingdale, NY, USA)
T2 sequence (P18031 1-435): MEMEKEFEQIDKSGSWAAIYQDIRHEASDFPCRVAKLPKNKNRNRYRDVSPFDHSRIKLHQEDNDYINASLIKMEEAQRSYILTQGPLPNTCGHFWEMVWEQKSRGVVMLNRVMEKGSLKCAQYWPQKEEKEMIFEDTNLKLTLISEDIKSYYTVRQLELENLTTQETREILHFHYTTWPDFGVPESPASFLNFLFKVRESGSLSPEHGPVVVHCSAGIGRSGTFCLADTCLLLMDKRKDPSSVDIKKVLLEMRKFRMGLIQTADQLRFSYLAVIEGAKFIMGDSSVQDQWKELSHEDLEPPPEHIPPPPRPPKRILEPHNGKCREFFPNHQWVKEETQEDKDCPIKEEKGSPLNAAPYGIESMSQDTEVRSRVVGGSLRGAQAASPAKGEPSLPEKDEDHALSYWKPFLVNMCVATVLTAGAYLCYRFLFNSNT
Text: as §1, §2

[5] = ONOO− scavenging activity (DHR123); conditions: mean ± SD, triplicate; read-out: Peroxynitirite IC50
Experimental: ONOO^− scavenging activity was measured using the method in previous literature involving measuring highly fluorescent rhodamine 123 that is converted from non-fluorescent DHR123 in the presence of ONOO^− [49].

HAS-AGEs formation = test: Inhibition of HSA-AGEs formation; type: biochemical; conditions: mean ± SD, triplicate
Experimental: (§5) The inhibitory activity of HRAR was examined according to previous literature with modifications. First, 150 µL of 100 mM sodium phosphate buffer (pH 6.2), 20 µL of 0.3 mM NADPH as the co-enzyme, 5 µL of the test samples (50, 10, and 2 mg/mL or 100% DMSO), and 20 µL of 10 mM DL-glyceraldehyde as the substrate were added to each of the 96 wells (final volume 200 µL). Quercetin was used as a positive control. The inhibitory activity of AGEs formation was examined according to the modified method. Aminoguanidine hydrochloride was used as a positive control for the AGEs formation inhibition assay.

PTP1B [6] = target: T2, PTP1B; test: PTP1B enzyme kinetics (Lineweaver–Burk and Dixon plots); type: biochemical; conditions: substrate pNPP; for Ki: Dixon plots, read-out: PTP1B Inhibition Constant (Ki); for PTP1B Inhibition Mode: Lineweaver–Burk plots
Experimental: as §3, §4

BSA-AGEs formation = test: Inhibition of BSA-AGEs formation; type: biochemical; conditions: mean ± SD, triplicate
Experimental: as §5

[7] = ABTS radical scavenging activity; conditions: Table 1; mean ± SD, triplicate
Experimental: (§6) The ABTS and DPPH radical scavenging activity of the extract and each fraction obtained from M. bombycis leaves were measured according to previous literature with modifications.

[8] = DPPH radical scavenging activity; conditions: Table 1; mean ± SD, triplicate
Experimental: as §6

[9] = one result of a single experiment, read-out: HRAR IC50
[10] = isolated compounds, mean ± SD, triplicate, read-out: PTP1B IC50

| Compound | IC50 [1, 9] | IC50 (α-glucosidase [2]) | Ki (α-glucosidase [3]) | α-Glucosidase Inhibition Mode (α-glucosidase [3]) | IC50 (PTP1B [4]; [10]) | IC50 [5] | IC50 (HAS-AGEs formation) | Ki (PTP1B [6]) | PTP1B Inhibition Mode (PTP1B [6]) | IC50 (BSA-AGEs formation) | other results |
| --- | --- | --- | --- | --- | --- | --- | --- | --- | --- | --- | --- |
| Oc1cc(O)cc(/C=C/c2ccc(O)cc2O)c1 [Oxyresveratrol (3), oxyresveratrol] | – | 2.58 ± 0.23 µM | – | – | – | 6.24 ± 0.06 µM | 5.38 ± 0.26 µM | – | – | 10.4 ± 0.39 µM | IC50 [1]: 265 µM; IC50 (PTP1B [4]): 72.9 ± 1.87 µM |
| Oc1cc(O)cc(-c2cc3ccc(O)cc3o2)c1 [Moracin M (5), moracin M] | 238 µM | 6.11 ± 0.53 µM | – | – | 27.1 ± 4.2 µM | 0.92 ± 0.13 µM | 2.07 ± 0.03 µM | – | – | 2.4 ± 0.18 µM | – |
| Oc1cc(O)cc(-c2cc3cc4c(cc3o2)OC(c2cc(O)cc(O)c2)C(c2ccc(O)cc2O)O4)c1 (stereo not shown) [Austrafuran C (6), austrafuran C] | 26.8 µM | 1.01 ± 0.17 µM | 0.75 µM | Mixed | 1.69 ± 0.02 µM | 2.76 ± 0.25 µM | 6.15 ± 0.25 µM | 1.45 µM | Mixed | 13.7 ± 0.55 µM | PTP1B Inhibition Mode (PTP1B [6]; listed as 6): mixed-type inhibition |
| O=C1O[C@H]([C@@H](O)CO)C(O)=C1O [L-ascorbic acid] | – | – | – | – | – | – | – | – | – | – | ABTS IC50 [7]: 3.38 ± 0.19 µg/mL; DPPH IC50 [8]: 2.82 ± 0.57 µg/mL |
| Oc1cc(O)cc(-c2cc3c4c(c(O)cc3o2)OC(c2ccc(O)cc2O)C4c2cc(O)cc(O)c2)c1 (stereo not shown) [Macrourin B (4), macrourin B] | < 4 µM | 0.44 ± 0.03 µM | 0.19 µM | Mixed | 2.5 ± 0.17 µM | 2.61 ± 0.13 µM | 7.98 ± 0.62 µM | 1.54 µM | Mixed | 9.44 ± 0.18 µM | PTP1B Inhibition Mode (PTP1B [6]; listed as 4): mixed-type inhibition |
| Cl.N=C(N)NN [Aminoguanidine, aminoguanidine hydrochloride, reference compound] | – | – | – | – | – | – | 504 ± 14.9 µM | – | – | 581 ± 28.7 µM | BSA-AGEs IC50 (BSA-AGEs formation; subfractions of EtOAc fraction, Table S1): 36.73 ± 1.64 µg/mL |
| Cc1c(C)c2c(c(C)c1O)CCC(C)(C(=O)O)O2 (stereo not shown) [Trolox, 6-hydroxy-2,5,7,8-tetramethylchloman-2-carboxylic acid] | – | – | – | – | – | – | – | – | – | – | ABTS IC50 [7]: 2.72 ± 0.13 µg/mL |

Continued, in another order:

| IC50 [1, 9] | IC50 (α-glucosidase [2]) | Ki (α-glucosidase [3]) | α-Glucosidase Inhibition Mode (α-glucosidase [3]) | IC50 (PTP1B [4]; [10]) | IC50 [5] | IC50 (HAS-AGEs formation) | Ki (PTP1B [6]) | PTP1B Inhibition Mode (PTP1B [6]) | IC50 (BSA-AGEs formation) | Compound | other results |
| --- | --- | --- | --- | --- | --- | --- | --- | --- | --- | --- | --- |
| 265 µM | 0.98 ± 0.03 µM | 1.71 µM | Mixed | 2.06 ± 0.39 µM | 3.03 ± 0.53 µM | 113 ± 3.62 µM | 4.41 µM | Non-competitive | 137.6 ± 0.33 µM | CC(C)=CCc1c(O)ccc(C(=O)[C@H]2[C@@H](c3c(O)cc(-c4cc5ccc(O)cc5o4)cc3O)C=C(C)C[C@@H]2c2ccc(O)cc2O)c1O [Chalcomoracin (8), chalcomoracin] | PTP1B Inhibition Mode (PTP1B [6]; listed as 8): non-competitive-type inhibition |
| – | – | – | – | – | 0.62 ± 0.17 µM | – | – | – | – | CC(C)(S)[C@H](N)C(=O)O [L-Penicillamine, reference compound] | – |
| 337 µM | 1.22 ± 0.05 µM | 1.84 µM | Mixed | 10.5 ± 0.25 µM | 8.63 ± 0.02 µM | – | 8.9 µM | Mixed | – | CC(C)=CCc1c(O)ccc(C23Oc4cc(O)ccc4C4CC(C)=CC(c5c(O)cc(-c6cc7ccc(O)cc7o6)cc5O2)C43)c1O (stereo not shown) [Mulberrofuran F (7), mulberrofuran F] | PTP1B Inhibition Mode (PTP1B [6]; listed as 7): mixed-type inhibition |
